# Measured values taken from patent publication US9657351B2, “MRNA-based gene expression for personalizing patient cancer therapy with an MDM2 antagonist” (Hoffmann-La Roche Inc., priority 2013, dated 2017).
# Key:
# BBC3 mRNA = assay: NO21279 blood cell gene expression on treatment, Affymetrix U133 Plus 2.0 microarray; type: in vivo, human; settings: blood cell specimens, C1D10; IQR 1.13-1.99
# Experimental: (§1) MDM2 mRNA concentrations were assessed at Roche Molecular Systems by quantitative real-time PCR with 50 ng total RNA from MACs isolated leukemia cells from blood. TaqMan (Invitrogen, Carlsbad, Calif., USA) probes were designed to detect MDM2 mRNA and the reference mRNA, beta-glucuronidase, simultaneously using two different fluorescent reporters. Gene expression profiles were generated using Affymetrix U133 Plus 2.0 microarrays. Probset ID's for the each of the four genes on said U133 Plus 2.0 microarray are: 209375_s_at (for XPC); 205386_s_at and 211832_s_at (MDM2); 211692_s_at (BBC3); 207039_at and 211156_at (CDKN2A). The “mRNA expression level” for one of the 4 genes according to the present invention is the accumulation of all counts falling into the range of exons of a gene (e.g. MDM2). […] The predictive patient signature score according to the present invention is then calculated using the following equation: patient signature score=GMDM2+GXPC+GBBC3−GCDKN2A. G in the formula stands for log 2 transformed mRNA expression levels as obtained from patient samples, for example blood leukemia or bone marrow biopsy samples. For example, for the patient data reported in Table 9 (Example 5), G is log 2 of the mRNA probeset expression of the relevant gene as measured with Affymetrix U133 Plus 2.0 microarrays.
# (§2) Each intensity value is then log 2 transformed.
# CDKN2A mRNA = assay: as above; type: in vivo, human; settings: C1D10; IQR 0.09-0.38
# Experimental: as §1, §2
# MDM2 mRNA = assay: as above; type: in vivo, human; settings: blood cell specimens, C1D10; IQR 1.71-5.00
# Experimental: as §1, §2
# KMS-12-BM = assay: COMPOUND A In Vitro Assay; type: cell-based, human; settings: TP53 mutant cell line
# Excerpt: (§3) To generate an MDM2 antagonist therapy predictive signature, the response of MDM2 antagonist therapy in vitro with gene expression profiling (FIG. 1) is combined. A bank of 287 human cancer cell lines, collectively termed the Cell Lines for Oncology/Chugai ACcumulative Tumour EncycLopedia (CELLO/CACTEL), representing a broad array of diverse human cancer tumor types are subject to evaluation using several high-throughput genomic technology platforms. The mutational status of nucleic acids from each cell line is determined by exome sequencing. Messenger RNA (mRNA) expression levels at baseline, prior to MDM2 antagonist therapy, are obtained via RNA sequencing. MDM2 antagonist therapy COMPOUND A, sometimes referred to herein as RG7112, responses are obtained by assays known to those skilled in the art such as RNA sequencing and microarray measurement using Gene Chip Human Genome U133 Plus 2.0 Array. The MDM2 therapy responses are obtained by high throughout screening assays. Depending on their responses to COMPOUND A these cell lines are classified as either sensitive, defined as IC50<=1, or resistant, defined as IC50>=10.
# (§4) 281 cells are treated with MDM2 antagonists and the IC50 (therapy response) is generated. The cell lines span a broad range of tumor cell types of derivation.
# 22Rv1 = assay: COMPOUND A In Vitro Assay; type: cell-based, human; settings: for IC50: Homo sapiens
# Excerpt: as §3, §4
# NCI-H2122 = assay: COMPOUND A In Vitro Assay; type: cell-based, human; settings: for IC50: Homo sapiens
# Excerpt: as §3, §4
# MKN-45 = assay: COMPOUND A In Vitro Assay; type: cell-based, human; settings: for IC50: Homo sapiens
# Excerpt: as §3, §4
# JIMT-1 = assay: COMPOUND A In Vitro Assay; type: cell-based; settings: Homo sapiens, Breast, TP53 Mutant
# How it was run: (§5)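 An IC50 per line came from high-throughput treatment with RG7112 across a multi-tumour human cancer cell panel.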
# C32 = assay: COMPOUND A In Vitro Assay; type: cell-based; settings: Homo sapiens, Skin, TP53 Wild type
# How it was run: as §5
# SNU-16 = assay: COMPOUND A In Vitro Assay; type: cell-based; settings: Homo sapiens, Stomach, TP53 Mutant
# How it was run: as §5
# KMS-34 = assay: COMPOUND A In Vitro Assay; type: cell-based; settings: Homo sapiens, Lymphocyte, TP53 Mutant
# How it was run: as §5
# NCI-H358 = assay: COMPOUND A In Vitro Assay; type: cell-based; settings: Homo sapiens, Lung, bronchi, TP53 Mutant
# How it was run: as §5
# HCC1187 = assay: COMPOUND A In Vitro Assay; type: cell-based; settings: Homo sapiens, Breast, mammary gland, TP53 Mutant
# How it was run: as §5
# KMS-20 = assay: COMPOUND A In Vitro Assay; type: cell-based; settings: Homo sapiens, Lymphocyte, TP53 Mutant
# How it was run: as §5
# NUGC-4 = assay: COMPOUND A In Vitro Assay; type: cell-based; settings: Homo sapiens
# How it was run: as §5
# Capan-1 = assay: COMPOUND A In Vitro Assay; type: cell-based; settings: Homo sapiens, Pancreas, TP53 Mutant
# How it was run: as §5
# NCI-H522 = assay: COMPOUND A In Vitro Assay; type: cell-based; settings: Homo sapiens, Lung, TP53 Mutant
# How it was run: as §5
# CAMA-1 = assay: COMPOUND A In Vitro Assay; type: cell-based; settings: Homo sapiens, Breast, mammary gland, TP53 Mutant
# How it was run: as §5
# LP-1 = assay: COMPOUND A In Vitro Assay; type: cell-based; settings: Homo sapiens, Lymphocyte, peripheral blood, TP53 Mutant
# How it was run: as §5
# SW1116 = assay: COMPOUND A In Vitro Assay; type: cell-based; settings: Homo sapiens, SW 1116, Intestine, large, colon, TP53 Mutant
# How it was run: as §5
# SW403 = assay: COMPOUND A In Vitro Assay; type: cell-based; settings: Homo sapiens, SW-403, Intestine, large, colon, TP53 Mutant
# How it was run: as §5
# MDA-MB-231 = assay: COMPOUND A In Vitro Assay; type: cell-based; settings: Homo sapiens, Breast, mammary gland, TP53 Mutant
# How it was run: as §5
# SW948 = assay: COMPOUND A In Vitro Assay; type: cell-based; settings: Homo sapiens, Intestine, large, colon, TP53 Mutant
# How it was run: as §5
# SK-OV-3 = assay: COMPOUND A In Vitro Assay; type: cell-based; settings: Homo sapiens, Ovary, TP53 Mutant
# How it was run: as §5
# BT-20 = assay: COMPOUND A In Vitro Assay; type: cell-based; settings: Homo sapiens, Breast, mammary gland, TP53 Mutant
# How it was run: as §5
# [1] = system: Ki-67-positive tumor cells; settings: NP22890; as previously reported; cited from earlier work
smiles,measurement,setting,value
CCOc1cc(C(C)(C)C)ccc1C1=N[C@@](C)(c2ccc(Cl)cc2)[C@@](C)(c2ccc(Cl)cc2)N1C(=O)N1CCN(CCCS(C)(=O)=O)CC1 [COMPOUND A],median BBC3 mRNA expression over baseline,BBC3 mRNA,1.45 times
same,median CDKN2A mRNA expression decreased over baseline,CDKN2A mRNA,0.26 times
same,median MDM2 mRNA expression over baseline,MDM2 mRNA,2.37 times
same,response to COMPOUND A (sensitive / resistant),KMS-12-BM,"sensitive (sensitive, defined as IC50<=1)"
same,response to COMPOUND A (sensitive / resistant),"22Rv1; 22Rv1, TP53 mutant cell line","sensitive (sensitive, defined as IC50<=1)"
same,IC50,"22Rv1; 22Rv1, 22Rv1, Prostate, TP53 Mutant",0.97 µM
same,IC50,"22Rv1; 22Rv1, 22Rv1 cells",1 µM
same,IC50,"NCI-H2122; NCI-H2122, NCI-H2122, Lung, TP53 Mutant",0.16 µM
same,IC50,"NCI-H2122; NCI-H2122, NCI-H2122 cells",0.2 µM
same,response to COMPOUND A (sensitive / resistant),"NCI-H2122; NCI-H2122, TP53 mutant cell line","sensitive (sensitive, defined as IC50<=1)"
same,IC50,"MKN-45; MKN-45, MKN-45, Stomach, TP53 Mutant",0.18 µM
same,IC50,"MKN-45; MKN-45, MKN-45 cells",0.2 µM
same,response to COMPOUND A (sensitive / resistant),"MKN-45; MKN-45, TP53 mutant cell line","sensitive (sensitive, defined as IC50<=1)"
same,IC50,JIMT-1,11 µM
same,IC50,C32,3 µM
same,IC50,SNU-16,10 µM
same,IC50,KMS-34,9.8 µM
same,IC50,NCI-H358,8.1 µM
same,IC50,HCC1187,12 µM
same,IC50,KMS-20,13 µM
same,IC50,"NUGC-4; NUGC-4, NUGC-4, Stomach, TP53 Wild type",0.38 µM
same,IC50,"NUGC-4; NUGC-4, NUGC-4 cells",0.4 µM
same,IC50,Capan-1,20 µM
same,IC50,NCI-H522,22 µM
same,IC50,CAMA-1,22 µM
same,IC50,LP-1,4.4 µM
same,IC50,SW1116,12 µM
same,IC50,SW403,6 µM
same,IC50,MDA-MB-231,17 µM
same,IC50,SW948,19 µM
same,IC50,SK-OV-3,17 µM
same,IC50,BT-20,3.6 µM
same,Ki-67-positive tumor cells change from baseline,[1],decreased
